Common to all, as to test: DTP human tumour cell line panel, 48 h
Experiment [1] concerns NCI-H23.
The test system of experiment [2] is 786-0.
Experiment [3] has as its system OVCAR-4.
The subject of experiment [4] is A549.
Experiment [5] deals with SK-OV-3.
Experiment [6] relates to HL-60.
For experiment [7], the system named is LOX IMVI.
In experiment [8] the test system is SK-MEL-28.
In experiment [9] the test system is UO-31.
For experiment [10], the system named is IGROV-1.
Experiment [11] deals with UACC-62.
In experiment [12] the test system is CAKI-1.
Experiment [13] concerns HOP-62.
Experiment [14] relates to HCT-116.
Experiment [15] relates to MOLT-4.
The test system of experiment [16] is HCC 2998.
The subject of experiment [17] is TK-10.
For experiment [18], the system named is HT-29.
Experiment [19] concerns OVCAR-3.
The test system of experiment [20] is A498.

The structures appear in SMILES notation.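 Cells were grown in 96-well plates and exposed to each compound for 48 hours at five concentrations; endpoints were interpolated linearly between bracketing concentrations, or set to the highest concentration if not reached. GI50: concentration for 50% inhibition of growth.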 Activity calls are given as the source filed them. Rule as the data show it: active = GI50 up to about 1.1 µM and inactive = higher.

In general, GI50 refers to the concentration giving 50% growth inhibition. On to `COc1ccc2[nH]c3c(C)c4ccnc(NCCCN(C)CCCN)c4c(C)c3c2c1`, for which the GI50 in experiment [1] was 0.202 µM (active); in experiment [2], 0.0596 µM (active); in experiment [3], 0.0809 µM (active); in experiment [4], 0.0442 µM (active); in experiment [5], 0.838 µM (active); in experiment [6], 0.12 µM (active). Further, the GI50 in [7] was 0.198 µM (active); in experiment [8], 0.719 µM (active); in experiment [9], 0.207 µM (active); in [10] it was 0.165 µM (active); in experiment [11] it was 0.22 µM (active); in experiment [12] it was 0.156 µM (active). Also, the GI50 was 0.109 µM (active) in experiment [13]; 0.107 µM (active) in experiment [14]; 0.111 µM (active) in experiment [15]; 0.159 µM (active) in experiment [16]; 0.166 µM (active) in experiment [17]; 0.042 µM (active) in [18]. The GI50 in [19] was 0.469 µM (active); in experiment [20], 0.217 µM (active).
As to `Oc1cc(Br)cc2cc(Br)cnc12`, the GI50 is 4.95 µM (inactive) in experiment [1]; 13.8 µM (inactive) in experiment [2]; 1.39 µM (inactive) in experiment [3]; 3.29 µM (inactive) in [4]; 39.2 µM (inactive) in experiment [5]; 0.22 µM (active) in experiment [6]. Moreover, the GI50 was 0.661 µM (active) in [7]; 2.02 µM (inactive) in experiment [8]; 2.99 µM (inactive) in experiment [9]; 1.14 µM (inactive) in [10]; 2.05 µM (inactive) in experiment [11]; 8.55 µM (inactive) in experiment [12]. Moreover, the GI50 is 12.3 µM (inactive) in [13]; 2.11 µM (inactive) in experiment [14]; 2.55 µM (inactive) in experiment [15]; 17.1 µM (inactive) in experiment [16]; 43 µM (inactive) in experiment [17]; 27.5 µM (inactive) in experiment [18]. The GI50 was 1.58 µM (inactive) in [19] and 3.4 µM (inactive) in experiment [20].
With `CCc1cccc(CC)c1NC(=O)C(=O)Cc1nc2ccccc2o1`, the GI50 in experiment [1], in [2], in [3], in experiment [4], in experiment [5] and in [6] was > 100 µM (inactive) each time. The GI50 in experiment [7], in [8], in [9], in experiment [10], in experiment [11] and in [12] was > 100 µM (inactive) throughout. The GI50 in experiment [13], in experiment [14], in experiment [15], in experiment [16], in experiment [17] and in [18] was > 100 µM (inactive) throughout. Moreover, the GI50 in experiment [19] and in [20] was > 100 µM (inactive) each time.
In the case of `Cc1ccc(O)c(C(c2cc(C)ccc2O)c2cc([N+](=O)[O-])ccc2O)c1`, the GI50 in experiment [1] was 12.4 µM (inactive); in experiment [2], 16.1 µM (inactive); in experiment [3], 11.8 µM (inactive); in experiment [4] it was 12.1 µM (inactive); in experiment [5] it was 17.7 µM (inactive); in experiment [6], 3.42 µM (inactive). The GI50 in [7] is 31.7 µM (inactive); in experiment [8], 5.73 µM (inactive); in experiment [9] it was 7.74 µM (inactive); in experiment [10] it was 10.3 µM (inactive); in experiment [11], 15.9 µM (inactive); in experiment [12] it was 12.2 µM (inactive). The GI50 in experiment [13] is 13.4 µM (inactive); in experiment [14] it was 24.6 µM (inactive); in experiment [15] it was 6.12 µM (inactive); in experiment [16], 12.4 µM (inactive); in [17] it was 17.4 µM (inactive); in experiment [18], 15 µM (inactive). Further, the GI50 was 12.4 µM (inactive) in experiment [19] and 17.2 µM (inactive) in experiment [20].
With `Clc1ccc(/C=C/c2csnn2)cc1`, the GI50 in [1], in [2], in experiment [3], in experiment [4], in experiment [5] and in [6] was > 100 µM (inactive) in each case. Moreover, the GI50 in [7], in experiment [8], in experiment [9], in experiment [10], in experiment [11] and in experiment [12] was > 100 µM (inactive) throughout. Further, the GI50 in experiment [13], in [14], in experiment [15], in experiment [16], in experiment [17] and in [18] was > 100 µM (inactive) in each case. The GI50 in experiment [19] and in [20] was > 100 µM (inactive) throughout.
Consider `Nc1ccn(C=C=CCO)c(=O)n1`, for which the GI50 in experiment [1] is > 100 µM (inactive); in experiment [2], > 100 µM (inactive); in experiment [3], > 100 µM (inactive); in experiment [4] it was > 100 µM (inactive); in [5], > 100 µM (inactive); in [6] it was 48.9 µM (inactive). The GI50 in [7], in [8], in [9], in [10], in experiment [11] and in experiment [12] was > 100 µM (inactive) in each case. Moreover, the GI50 is > 100 µM (inactive) in experiment [13]; > 100 µM (inactive) in experiment [14]; 5.85 µM (inactive) in [15]; > 78.5 µM (inactive) in experiment [16]; > 100 µM (inactive) in experiment [17]; > 100 µM (inactive) in [18]. Also, the GI50 in [19] and in experiment [20] was > 100 µM (inactive) each time.
Regarding `O=C1c2ccc3c4ccc5c6c(ccc(c7ccc(c2c37)C(=O)N1CCN1CCCCC1)c64)C(=O)N(CCN1CCCCC1)C5=O`, the GI50 in experiment [1], in [2], in [3], in experiment [4], in experiment [5] and in experiment [6] was > 100 µM (inactive) in each case. Also, the GI50 in experiment [7], in experiment [8], in experiment [9], in experiment [10], in experiment [11] and in experiment [12] was > 100 µM (inactive) throughout. Besides, the GI50 in experiment [13], in experiment [14], in experiment [15], in [16], in experiment [17] and in experiment [18] was > 100 µM (inactive) in each case. The GI50 in experiment [19] and in experiment [20] was > 100 µM (inactive) each time.

Values taken from ChEMBL document CHEMBL1201862, “PubChem BioAssay data set” (2004).
